Assay results taken from ChEMBL document CHEMBL1201862, “PubChem BioAssay data set” (2004).
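Step 1: Grow cells in 96-well plates. Step 2: Expose to compound for 48 hours at 5 concentrations. Step 3: Interpolate endpoints linearly; if unreached, use highest concentration. Abbreviation: GI50, concentration required for 50% inhibition of growth.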 Active and inactive are the calls of the source. Rule as the data show it: active = GI50 up to about 1.1 µM and inactive = higher.

Columns and labels:
Assay in all cases: DTP human tumour cell line panel, 48 h
CCRF-CEM = test system: CCRF-CEM
COLO 205 = test system: COLO 205
HCT-116 = test system: HCT-116
HL-60 = test system: HL-60
HOP-62 = test system: HOP-62
HT-29 = test system: HT-29
IGROV-1 = test system: IGROV-1
K562 = test system: K562
MOLT-4 = test system: MOLT-4
NCI-H23 = test system: NCI-H23
OVCAR-5 = test system: OVCAR-5
OVCAR-8 = test system: OVCAR-8
RPMI-8226 = test system: RPMI-8226
RXF 393 = test system: RXF 393
SK-MEL-28 = test system: SK-MEL-28
SK-OV-3 = test system: SK-OV-3
SN12C = test system: SN12C
SNB-19 = test system: SNB-19
UACC-62 = test system: UACC-62
UO-31 = test system: UO-31

Measured: GI50

C=C1C2=C(CCCC2)C(=O)OC12CCCCC2
inactive: CCRF-CEM 51.4 µM | COLO 205 51.2 µM | HCT-116 47.1 µM | HL-60 27.1 µM | HOP-62 > 100 µM | HT-29 59.4 µM | IGROV-1 88.9 µM | K562 45.2 µM | MOLT-4 38.5 µM | NCI-H23 36.9 µM | OVCAR-5 79.8 µM | OVCAR-8 > 100 µM | RPMI-8226 35.5 µM | RXF 393 56.5 µM | SK-MEL-28 79.4 µM | SK-OV-3 > 100 µM | SN12C > 100 µM | SNB-19 > 100 µM | UACC-62 56.9 µM | UO-31 35.1 µM

O=C1C(Cl)N(c2ccc([N+](=O)[O-])cc2)C1c1c[nH]c2ccccc12 (stereo not given)
inactive: CCRF-CEM 9.25 µM | COLO 205 > 100 µM | HCT-116 55.5 µM | HL-60 31 µM | HOP-62 > 100 µM | HT-29 48.1 µM | IGROV-1 77.6 µM | K562 55 µM | MOLT-4 28.6 µM | NCI-H23 86.9 µM | OVCAR-5 > 100 µM | OVCAR-8 > 100 µM | RPMI-8226 30.8 µM | RXF 393 > 100 µM | SK-MEL-28 > 100 µM | SK-OV-3 56.6 µM | SN12C > 100 µM | SNB-19 > 100 µM | UACC-62 51.3 µM | UO-31 38.3 µM

Cc1[nH]c(=O)[nH]c(=O)c1/C=C/C(=O)NC(CO)CC(C)C (stereo not given)
inactive: CCRF-CEM 181 µM | COLO 205 242 µM | HCT-116 322 µM | HL-60 > 361 µM | HOP-62 > 375 µM | HT-29 222 µM | IGROV-1 > 375 µM | K562 179 µM | MOLT-4 237 µM | NCI-H23 > 362 µM | OVCAR-5 > 265 µM | OVCAR-8 160 µM | RPMI-8226 > 375 µM | RXF 393 > 375 µM | SK-MEL-28 305 µM | SK-OV-3 > 300 µM | SN12C 274 µM | SNB-19 356 µM | UACC-62 > 375 µM | UO-31 > 375 µM
